Results taken from article PMC8019157 (Antiviral research, 2021).
Where two headings read alike, the source gives them in different places.

Assays:
[1] = target: T1, SERCA1 (Oryctolagus cuniculus, UniProt P04191); experiment: SERCA1 ATPase activity; type: biochemical, rabbit; details: with and without A23187
[2] = cited from earlier work; for Cmax: read-out: plasma Cmax
[3] = target: rabbit skeletal muscle ryanodine receptor Ca^2+ release channel (RyR1) (Oryctolagus cuniculus, UniProt P11716); experiment: [^3H]ryanodine binding/displacement assay with SR membrane vesicles
[4] = test system: C2C12 skeletal muscle myotubes; experiment: Live-cell Ca^2+ imaging; type: cell-based, Mouse
[5] = target: T1, SERCA1; experiment: ATP-dependent ^45Ca^2+ accumulation by longitudinal SR vesicles; type: biochemical, rabbit
[6] = target: RyR1 (Oryctolagus cuniculus, UniProt P11716); experiment: Lipid bilayer single channel recordings of purified RyR1; type: biochemical, rabbit
[7] = Drug dissolved in ethanol/water; type: physicochemical; details: room temperature (22 °C), HPLC
[8] = Atazanavir 1.56 μM cis, 3.3 μM cis Ca^2+
[9] = Atazanavir 3.12 μM cis, 3.3 μM cis Ca^2+
[10] = Atazanavir 6.78 μM cis, 3.3 μM cis Ca^2+
[11] = Atazanavir 20.00 μM cis, 3.3 μM cis Ca^2+
[12] = Atazanavir 30.00 μM cis, 3.3 μM cis Ca^2+
[13] = Atazanavir […] cis, 3.3 μM cis Ca^2+

Chain of RyR1 (P11716 whole entry): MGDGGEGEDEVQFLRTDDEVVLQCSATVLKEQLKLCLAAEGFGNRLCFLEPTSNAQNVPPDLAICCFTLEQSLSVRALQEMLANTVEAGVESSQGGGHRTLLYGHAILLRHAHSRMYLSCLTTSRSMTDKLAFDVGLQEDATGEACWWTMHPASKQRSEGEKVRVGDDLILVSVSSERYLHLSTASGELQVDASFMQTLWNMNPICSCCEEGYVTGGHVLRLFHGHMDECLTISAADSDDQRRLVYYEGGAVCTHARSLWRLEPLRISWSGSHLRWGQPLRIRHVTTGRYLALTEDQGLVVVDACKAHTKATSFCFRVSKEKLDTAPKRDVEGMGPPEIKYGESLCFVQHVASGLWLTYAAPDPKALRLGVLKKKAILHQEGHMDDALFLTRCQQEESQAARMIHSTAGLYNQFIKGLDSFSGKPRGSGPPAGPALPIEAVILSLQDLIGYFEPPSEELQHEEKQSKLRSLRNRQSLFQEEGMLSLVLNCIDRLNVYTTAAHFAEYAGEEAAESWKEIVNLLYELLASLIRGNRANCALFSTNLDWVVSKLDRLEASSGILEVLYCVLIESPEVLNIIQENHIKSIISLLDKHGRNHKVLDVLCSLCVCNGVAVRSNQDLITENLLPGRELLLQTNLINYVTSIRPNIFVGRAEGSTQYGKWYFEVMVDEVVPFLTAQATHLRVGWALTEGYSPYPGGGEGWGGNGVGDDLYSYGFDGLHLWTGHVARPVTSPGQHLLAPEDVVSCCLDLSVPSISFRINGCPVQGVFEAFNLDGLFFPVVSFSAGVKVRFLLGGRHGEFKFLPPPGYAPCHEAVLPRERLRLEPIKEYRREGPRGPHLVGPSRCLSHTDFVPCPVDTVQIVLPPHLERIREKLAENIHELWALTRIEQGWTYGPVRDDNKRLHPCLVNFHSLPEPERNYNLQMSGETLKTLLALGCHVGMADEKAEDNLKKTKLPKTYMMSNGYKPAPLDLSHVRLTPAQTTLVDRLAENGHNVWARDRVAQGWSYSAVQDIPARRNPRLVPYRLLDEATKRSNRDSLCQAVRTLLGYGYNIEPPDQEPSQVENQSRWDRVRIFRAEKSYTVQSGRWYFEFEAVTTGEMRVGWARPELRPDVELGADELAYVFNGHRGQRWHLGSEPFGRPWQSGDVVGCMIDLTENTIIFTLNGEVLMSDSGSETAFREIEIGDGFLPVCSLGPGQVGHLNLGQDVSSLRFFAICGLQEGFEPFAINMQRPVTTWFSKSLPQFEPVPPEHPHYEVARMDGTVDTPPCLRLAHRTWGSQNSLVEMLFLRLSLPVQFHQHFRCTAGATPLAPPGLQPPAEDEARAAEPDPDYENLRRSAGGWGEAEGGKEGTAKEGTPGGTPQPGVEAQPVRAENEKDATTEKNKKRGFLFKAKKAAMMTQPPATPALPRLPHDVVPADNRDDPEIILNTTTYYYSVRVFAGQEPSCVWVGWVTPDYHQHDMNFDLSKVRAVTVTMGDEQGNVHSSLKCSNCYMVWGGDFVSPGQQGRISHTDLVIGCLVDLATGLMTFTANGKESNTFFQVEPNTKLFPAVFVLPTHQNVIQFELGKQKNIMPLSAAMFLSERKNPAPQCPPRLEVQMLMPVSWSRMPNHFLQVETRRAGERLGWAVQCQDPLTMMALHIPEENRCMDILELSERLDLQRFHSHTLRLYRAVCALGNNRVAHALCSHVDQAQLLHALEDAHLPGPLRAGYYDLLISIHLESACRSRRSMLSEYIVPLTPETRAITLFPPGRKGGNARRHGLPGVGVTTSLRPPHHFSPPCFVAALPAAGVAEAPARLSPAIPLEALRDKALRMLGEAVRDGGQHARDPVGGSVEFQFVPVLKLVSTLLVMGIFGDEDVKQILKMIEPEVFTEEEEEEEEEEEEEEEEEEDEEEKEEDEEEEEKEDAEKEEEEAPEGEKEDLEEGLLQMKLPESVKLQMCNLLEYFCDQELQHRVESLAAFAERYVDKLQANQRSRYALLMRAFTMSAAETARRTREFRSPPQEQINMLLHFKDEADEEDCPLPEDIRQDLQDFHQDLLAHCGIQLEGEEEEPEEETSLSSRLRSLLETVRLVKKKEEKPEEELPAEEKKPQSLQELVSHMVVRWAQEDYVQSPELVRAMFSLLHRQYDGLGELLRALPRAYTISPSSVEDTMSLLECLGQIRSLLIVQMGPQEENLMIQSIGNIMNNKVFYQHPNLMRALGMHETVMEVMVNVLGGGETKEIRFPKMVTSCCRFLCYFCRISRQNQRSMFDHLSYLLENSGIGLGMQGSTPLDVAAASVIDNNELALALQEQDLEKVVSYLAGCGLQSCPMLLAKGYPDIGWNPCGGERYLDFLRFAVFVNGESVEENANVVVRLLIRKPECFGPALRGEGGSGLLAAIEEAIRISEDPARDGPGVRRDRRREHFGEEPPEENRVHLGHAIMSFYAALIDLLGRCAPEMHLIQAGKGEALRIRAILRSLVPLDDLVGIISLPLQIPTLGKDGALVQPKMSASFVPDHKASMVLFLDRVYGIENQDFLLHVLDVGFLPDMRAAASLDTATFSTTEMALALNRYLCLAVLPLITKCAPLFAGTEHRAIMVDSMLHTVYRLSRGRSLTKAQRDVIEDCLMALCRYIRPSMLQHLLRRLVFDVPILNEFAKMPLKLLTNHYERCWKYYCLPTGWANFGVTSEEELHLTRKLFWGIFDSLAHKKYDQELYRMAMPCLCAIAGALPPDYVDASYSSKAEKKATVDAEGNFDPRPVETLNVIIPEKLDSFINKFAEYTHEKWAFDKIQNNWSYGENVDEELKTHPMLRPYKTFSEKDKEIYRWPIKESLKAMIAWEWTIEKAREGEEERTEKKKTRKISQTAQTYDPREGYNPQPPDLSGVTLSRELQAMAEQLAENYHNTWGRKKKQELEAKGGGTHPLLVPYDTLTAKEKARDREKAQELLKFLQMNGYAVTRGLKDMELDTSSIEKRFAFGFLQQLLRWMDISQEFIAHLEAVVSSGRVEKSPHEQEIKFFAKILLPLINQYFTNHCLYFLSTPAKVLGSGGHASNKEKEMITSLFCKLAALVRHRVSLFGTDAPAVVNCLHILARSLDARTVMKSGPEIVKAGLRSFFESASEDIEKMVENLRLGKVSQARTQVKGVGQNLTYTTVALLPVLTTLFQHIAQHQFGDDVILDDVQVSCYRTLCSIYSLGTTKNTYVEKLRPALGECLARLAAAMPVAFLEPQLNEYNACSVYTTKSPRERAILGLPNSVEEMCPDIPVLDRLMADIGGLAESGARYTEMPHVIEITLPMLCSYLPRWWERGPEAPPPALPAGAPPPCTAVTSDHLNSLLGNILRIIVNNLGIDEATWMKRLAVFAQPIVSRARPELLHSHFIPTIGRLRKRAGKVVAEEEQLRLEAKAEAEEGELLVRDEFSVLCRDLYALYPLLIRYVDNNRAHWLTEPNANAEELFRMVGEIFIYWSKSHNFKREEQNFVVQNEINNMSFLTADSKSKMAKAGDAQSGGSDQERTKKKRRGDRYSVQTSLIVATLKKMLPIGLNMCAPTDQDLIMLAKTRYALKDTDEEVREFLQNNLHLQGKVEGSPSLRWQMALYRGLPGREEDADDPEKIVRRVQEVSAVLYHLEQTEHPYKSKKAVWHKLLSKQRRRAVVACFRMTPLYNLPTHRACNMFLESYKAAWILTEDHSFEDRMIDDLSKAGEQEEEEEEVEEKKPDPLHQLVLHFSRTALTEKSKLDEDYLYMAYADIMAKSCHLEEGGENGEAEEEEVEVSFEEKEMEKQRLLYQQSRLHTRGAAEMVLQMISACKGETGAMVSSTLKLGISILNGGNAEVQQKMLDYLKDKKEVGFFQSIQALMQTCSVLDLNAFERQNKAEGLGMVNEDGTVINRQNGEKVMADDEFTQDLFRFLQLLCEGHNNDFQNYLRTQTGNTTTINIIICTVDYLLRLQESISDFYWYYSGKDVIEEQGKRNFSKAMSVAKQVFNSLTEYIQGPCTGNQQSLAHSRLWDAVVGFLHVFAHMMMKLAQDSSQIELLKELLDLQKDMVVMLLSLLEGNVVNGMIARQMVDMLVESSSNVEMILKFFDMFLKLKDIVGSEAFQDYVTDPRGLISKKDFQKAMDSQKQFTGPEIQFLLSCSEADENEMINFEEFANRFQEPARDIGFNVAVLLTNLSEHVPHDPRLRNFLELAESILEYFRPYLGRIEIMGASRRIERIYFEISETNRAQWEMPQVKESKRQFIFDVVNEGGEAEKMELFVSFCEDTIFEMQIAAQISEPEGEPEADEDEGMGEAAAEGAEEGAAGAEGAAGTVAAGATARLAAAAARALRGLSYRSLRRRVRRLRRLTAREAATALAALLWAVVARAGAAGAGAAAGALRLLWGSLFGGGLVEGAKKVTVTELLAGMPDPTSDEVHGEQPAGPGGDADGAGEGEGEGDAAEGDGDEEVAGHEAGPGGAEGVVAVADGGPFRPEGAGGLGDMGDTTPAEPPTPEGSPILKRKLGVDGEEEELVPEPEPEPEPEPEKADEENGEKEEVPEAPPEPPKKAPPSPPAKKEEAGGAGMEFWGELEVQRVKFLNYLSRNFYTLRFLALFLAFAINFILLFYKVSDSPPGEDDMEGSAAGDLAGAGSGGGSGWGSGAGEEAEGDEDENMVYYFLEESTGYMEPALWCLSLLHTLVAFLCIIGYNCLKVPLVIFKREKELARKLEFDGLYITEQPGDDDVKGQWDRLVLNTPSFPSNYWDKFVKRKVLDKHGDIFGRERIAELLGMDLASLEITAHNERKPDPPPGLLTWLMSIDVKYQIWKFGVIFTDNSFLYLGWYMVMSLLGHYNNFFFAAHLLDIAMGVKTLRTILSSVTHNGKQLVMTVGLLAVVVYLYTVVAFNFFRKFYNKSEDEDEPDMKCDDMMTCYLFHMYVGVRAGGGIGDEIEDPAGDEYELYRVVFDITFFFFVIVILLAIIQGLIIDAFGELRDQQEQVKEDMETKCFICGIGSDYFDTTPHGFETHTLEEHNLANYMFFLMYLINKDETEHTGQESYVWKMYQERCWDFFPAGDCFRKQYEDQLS
Chain of rabbit skeletal muscle ryanodine receptor Ca^2+ release channel (RyR1) (P11716 whole entry): as above

COC(=O)N[C@H](C(=O)N[C@@H](Cc1ccccc1)[C@@H](O)CN(Cc1ccc(-c2ccccn2)cc1)NC(=O)[C@@H](NC(=O)OC)C(C)(C)C)C(C)(C)C [ATV, atazanavir]
effect on ATPase activity of SERCA1 ([1]; 0 – 20 μM, 20 min at 37°C): biphasic
effect on ATPase activity of SERCA1 ([1]; concentrations higher than 5.0 μM): decreased the ATPase activity
effect on ATPase activity of SERCA1 ([1]; concentrations of 0.25 and 5.0 μM): potentiated
plasma Cmax ([2]; 300 mg/day ATV): ~ 2.2 μg/ml
Cmax ([2]; 300 mg/day ATV): ~3 µM
Cmax ([2]; ATV co-administered with RTV (100 mg/day)): ~6 µM
EC50 [3]: 14.9 ± 1.4 nM
IC50 [3]: 6200 ± 800 nM
Ki [3]: 1600 ± 200 nM
maximum percent enhancement of [^3H]ryanodine binding over control ([3]; 6.7 nM [^3H]ryanodine, 2 hr at 37°C): 40.5 ± 5.2%
concentrations that enhanced [^3H]ryanodine binding to RyR1 ([3]; 2 hr at 37°C): 1 to 20 nM
Ca^2+ transient in C2C12 cells pretreated with 50 μM ryanodine for 20 min [4]: attenuated the amplitude
diameter of plasma membrane blebs, times larger than that of EFV ([4]; 6 μM): ~ 1.5 ×
effect on plasma membrane of C2C12 cells ([4]; 6 μM): blebbing
rate of Ca^2+ transient rise, times faster than that of EFV ([4]; 6 μM): 7.7 ×
rate of decay of the Ca^2+ transient, times faster than that of EFV ([4]; 6 μM): 3 x
mean peak amplitude of the Ca^2+ transient ([4]; 6 μM, antiretroviral-naïve C2C12 myotubes): 4.4 ± 0.1 f.u.
response to a second dose in previously exposed C2C12 cells ([4]; second dose 6 μM): did not elicit a second Ca^2+ transient
effect on ATP-dependent Ca^2+ transport by SERCA1 ([5]; 0 – 31.2 μM, 20 min at 37°C): biphasic
effect on Ca^2+ accumulation via SERCA1 ([5]; > 5 μM): inhibiting
effect on Ca^2+ accumulation via SERCA1 ([5]; up to 5.0 μM): potentiating
increase in Po of RyR1 ([6]; 1.6 μM cis ATV, within 15 sec, 3.3 μM cis Ca^2+): 40%
effect on conductance of RyR1 ([6]; 3.2 μM cis ATV): did not alter the conductance
Po of RyR1 ([6]; 6.8 μM cis ATV): 0.92 ± 0.10
conductance of reduced conductance state R’1 ([6]; 6.8 μM cis ATV): 532 ± 34 pS
current amplitude of RyR1 (reduced conductance state R’1) ([6]; 6.8 μM cis ATV): 74 % of maximum
dwell time in the opened state ([6]; 6.8 μM cis ATV, ± 30 mV holding potential): > 25 ms
current amplitude of RyR1 (R’1) ([6]; 20.0 μM and 30.0 μM cis ATV): 74 % of maximum
Closed- maximally opened transitions (Hz) [6, 8]: 789 ± 25 Hz
Dwell time closed state [6, 8]: 1.97 ± 0.03 ms
Dwell time open state [6, 8]: 0.66 ± 0.02 ms
Po (+30 mV) [6, 8]: 0.14 ± 0.01
Closed- maximally opened transitions (Hz) [6, 9]: 1102 ±22 Hz
Dwell time closed state [6, 9]: 0.62 ± 0.03 ms
Dwell time open state [6, 9]: 2.83 ± 0.08 ms
Po (+30 mV) [6, 9]: 0.56 ± 0.03
Closed- maximally opened transitions (Hz) [6, 10]: 206 ± 30 Hz
Dwell time closed state [6, 10]: 0.55 ± 0.07 ms
Dwell time open state [6, 10]: 25.12 ± 1.52 ms
Po (+30 mV) [6, 10]: 0.92 ± 0.10
Closed- maximally opened transitions (Hz) [6, 11]: 750 ± 55 Hz
Dwell time closed state [6, 11]: 2.22 ± 0.15 ms
Dwell time open state [6, 11]: 1.44 ± 0.05 ms
Po (+30 mV) [6, 11]: 0.60 ± 0.04
Closed- maximally opened transitions (Hz) [6, 12]: 142 ±20 Hz
Dwell time closed state [6, 12]: 5.65 ± 0.06 ms
Dwell time open state [6, 12]: 0.33 ± 0.01 ms
Po (+30 mV) [6, 12]: 0.11 ± 0.01
Closed- maximally opened transitions (Hz) [6, 13]: 225 ±16 Hz
Dwell time closed state [6, 13]: 0.43 ± 0.05 ms
Dwell time open state [6, 13]: 5.70 ± 0.20 ms
Po (+30 mV) [6, 13]: 0.82 ± 0.04
effect on Po of RyR1 of concentrations lower than 1.6 μM ([6]; up to five minutes after addition): did not elicit changes in the Po
fraction dissolved in ethanol/water (1:1) [7]: 12.9%
stock concentration in ethanol/water (1:1) [7]: 3.2 mM
